molecular target: T1, 5α-reductase (Homo sapiens, UniProt P18405); assay: 5α-Reductase activity (conversion of testosterone to DHT) in Hs68 human genital skin fibroblasts, TLC of radiolabelled steroids; type: cell-based; settings: Concentration 0.316 mM; Hs68 cells, four hours incubation; 0 equals no activity, 100 equals total inhibition
T1 construct: host or cells: Hs68 human genital skin fibroblasts
T1 sequence (P18405 1-259): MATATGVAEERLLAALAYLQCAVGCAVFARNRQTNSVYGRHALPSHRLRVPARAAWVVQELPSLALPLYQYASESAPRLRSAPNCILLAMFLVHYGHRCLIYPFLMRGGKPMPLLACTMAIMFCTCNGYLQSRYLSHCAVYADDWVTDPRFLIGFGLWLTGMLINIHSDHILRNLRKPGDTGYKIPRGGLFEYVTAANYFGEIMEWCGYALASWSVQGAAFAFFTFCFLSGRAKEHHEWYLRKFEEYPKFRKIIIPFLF
Method: Cell Culture: 5α-Reductase activity was measured using Hs68 human genital skin fibroblasts which were originally purchased from the American Type Culture Collection(Rockville, MD). The cells were grown in Dulbecco's Modified Eagle's Medium (DMEM) plus 10% stripped fetal bovine serum which was supplemented with amphotericin B ([…]) and gentamicin ([…]) (GIBCO, Grand Island, NY). The serum was stripped of endogenous steroids by incubation with dextran-coated charcoal prior to its addition to the media. The cells were maintained at 37°C in an atmosphere of 95% air, 5% CO2 and were passaged every 7-10 days by exposure to a trypsin-EDTA solution (0.025% trypsin, 0.265 mM EDTA). Prior to the assay the Hs68 cells were harvested and plated in Falcon 6-well plates (Becton Dickinson Labware, Lincoln Park, NJ) at a density of 6 x 10^4 cells per well. The cells were allowed to grow for 4-5 days or until they reached approximately 80% confluence.
Assay Method I: The substrate was prepared by dissolving unlabeled testosterone (Sigma Chemical Co., St. Louis, MO) in absolute ethanol followed by the addition of [7-^3H (N)]-testosterone (23.3 Ci/mmole, New England Nuclear, Boston, MA). The steroid solution was taken to dryness under a stream of nitrogen and then reconstituted in media.
Assay Method II: The substrate used for this method was [^14C]-testosterone (50 mCi/mmol) (New England Nuclear, Boston, MA). An aliquot of the substrate was taken to dryness under a stream of nitrogen. After the addition of […] of ethanol, the testosterone was brought up in an appropriate volume of media.
Sample Preparation: The test compounds were dissolved in absolute ethanol in order to achieve the desired concentration. Subsequent dilutions of the test compounds with media were performed by the Biomek 1000 Automated Laboratory Workstation (Beckman Instruments, Palo Alto, CA). The existing media in the sample wells was aspirated and replaced with fresh media. Test compound was then added to the wells followed by the addition of 0.5 ml of the substrate. The volume of the incubation mixture was maintained at 2.0 ml. The final substrate concentration was […]. The concentration of the test compounds ranged from 0.001-15 mM. An additional three wells (background) containing media and substrate but no cells were also included to account for the non-enzymatic metabolism of the substrate. The plates were returned to the incubator and incubated for four hours.
At the end of the incubation the media was collected and transferred to an extraction tube containing 5 ml of toluene-ethanol (9:1), to which has been added […] each of unlabeled carrier steroids (estriol, estradiol, estrone, 5α-androstan-3α,17b-diol, 5α-androstan-3b,17b-diol, 4-androstene-3,17-dione, 5α-androstan-3,17-dione, testosterone, and 5α-dihydrotestosterone) (Steraloids, Inc. Wilton, NH). In the case of Assay Method I the extraction tube also contained 1,000 and 10,000 dpm of [4-^14C]-dihydrotestosterone(50-60 mCi/mmol) and [4-^14C]-testosterone (50 mCi/mmol) (New England Nuclear, Boston, MA), respectively. The [^14C]-steroids were included as recovery standards to quantify procedural losses. A small amount of NaCl was also added to the extraction tubes to prevent foaming. The samples were vortexed for approximately 30 seconds and then centrifuged for 10 minutes at 500 x g. The organic phase was collected and the samples taken to dryness, redissolved in dichloromethane-methanol (9:1) and were analyzed by thin layer chromatography using one of the methods described below.
Chromatography Method I (two-dimensional): The extracted samples were appled to silica gel 60F254, 0.25 mm thick, thin layer chromatography plates (EM Science, Cincinnati, OH). The plates were developed in the first dimension with a solvent system containing dichloromethaneethyl acetate-methanol-acetic acid (160:38:1.5:0.5, Mallinckrodt Inc., Paris, KY). […]

SMILES	inhibition at 316 µM [%]
CC1(C)CC2=C(CCC(=O)N2)c2ccc(Br)cc21 [Example 14, 8-bromo-6,6-dimethyl-1,2,3,4,5,6-hexahydrobenzo[f]quinolin-3-one]	30
O=C1CCC2=C(CCc3cc(Cl)c(Cl)cc32)N1 [Example 3, 8,9-dichloro-1,2,3,4,5,6-hexahydrobenzo[f]quinolin-3-one]	85
O=C1CCC2=C(CCc3cc(Br)ccc32)N1 [Example 1, 8-bromo-1,2,3,4,5,6-hexahydrobenzo[f]quinolin-3-one]	73

same assay, conditions: Concentration 3.16 mM; Hs68 cells, four hours incubation; 0 equals no activity, 100 equals total inhibition

SMILES	inhibition at 3160 µM [%]
CC(C)(C)c1ccc2c(c1)CCC1=C2CCC(=O)N1 [Example 15, 8-t-butyl-1,2,3,4,5,6-hexahydrobenzo[f]quinolin-3-one]	30

same assay, conditions: Concentration 10.0 mM; Hs68 cells, four hours incubation; 0 equals no activity, 100 equals total inhibition

SMILES	inhibition at 10000 µM [%]
CN1C(=O)CCC2=C1CCc1cc(Cl)ccc12 [Example 4, 8-chloro-4-methyl-1,2,3,4,5,6-hexahydrobenzo[f]quinolin-3-one]	91
O=C1CCC2=C(CCc3ccccc32)N1 [Example 8, 1,2,3,4,5,6-hexahydrobenzo[f]quinolin-3-one]	63
Cc1ccc2c(c1)CCC1=C2CCC(=O)N1C [Example 5, 4,8-dimethyl-1,2,3,4,5,6-hexahydrobenzo[f]quinolin-3-one]	100
O=C1CCC2=C(CCc3cc(F)ccc32)N1 [Example 9, 8-fluoro-1,2,3,4,5,6-hexahydrobenzo[f]quinolin-3-one]	76
CN1C(=O)CCC2=C1CCc1cc(F)ccc12 [Example 6, 8-fluoro-4-methyl-1,2,3,4,5,6-hexahydrobenzo[f]quinolin-3-one]	81
CCCCN1C(=O)CCC2=C1CCc1cc(F)ccc12 [Example 25, 8-fluoro-4-n-butyl-1,2,3,4,5,6-hexahydrobenzo[f]quinolin-3-one]	56
CN1C(=O)CCC2=C1CCc1cc(Br)ccc12 [Example 2, 8-bromo-4-methyl-1,2,3,4,5,6-hexahydrobenzo-[f]quinolin-3-one]	98
Cc1ccc2c(c1)CCC1=C2CCC(=O)N1 [Example 13, 8-methyl-1,2,3,4,5,6-hexahydrobenzo[f]quinolin-3-one]	100

same assay, conditions: Concentration 1.0 (1.00) mM; Hs68 cells, four hours incubation; 0 equals no activity, 100 equals total inhibition

SMILES	% Inhibition [%]
O=C1CCC2=C(CCc3cccc(F)c32)N1 [Example 20, 10-fluoro-1,2,3,4,5,6-hexahydrobenzo[f]quinolin-3-one]	22

— patent EP0591582B1, “Hexahydrobenzo (f) quinolinones as 5-alpha-reductase inhibitors” (ELI LILLY AND COMPANY, priority 1992, dated 1994)
